Measured values: US12539312B2, “Use of materials made of cross-linked β-cyclodextrins for the treatment of tuberculosis” (INSERM (INSTITUT NATIONAL DE LA SANTÉ ET DE LA RECHERCHE …, priority 2019, dated 2026)

Assays:
[1] = Phase solubility study, Booster; conditions: 1:1 stoichiometry assumed; BDM43266 per FIG. 2B
[2] = Phase solubility study, ETH; conditions: 1:1 stoichiometry assumed, from phase solubility diagram
Mtb H37Rv = assay: Lung mycobacterial load in Mtb-challenged mice (CFU counting); assay type: in vivo, Mycobacterium tuberculosis; conditions: Booster co-loaded with ETH in pβCD
BMDM = assay: Apoptosis/necrosis assay (Annexin V and DNA intercalating dye); assay type: cell-based, murine; conditions: 24 hours incubation

Row | SMILES | K1:1 (binding constant) in the case of Booster [1] | K1:1 (binding constant) in the case of ETH [2] | boosting efficacy on ETH (Mtb H37Rv) | Annexin V / DNA intercalating dye staining (BMDM)
1 | OC[C@H]1O[C@@H]2O[C@H]3[C@H](O)[C@@H](O)[C@@H](O[C@H]4[C@H](O)[C@@H](O)[C@@H](O[C@H]5[C@H](O)[C@@H](O)[C@@H](O[C@H]6[C@H](O)[C@@H](O)[C@@H](O[C@H]7[C@H](O)[C@@H](O)[C@@H](O[C@H]8[C@H](O)[C@@H](O)[C@@H](O[C@H]1[C@H](O)[C@H]2O)O[C@@H]8CO)O[C@@H]7CO)O[C@@H]6CO)O[C@@H]5CO)O[C@@H]4CO)O[C@@H]3CO [βCD, β-Cyclodextrin] | 514 | 100 | – | –
2 | OC[C@H]1O[C@@H]2O[C@H]3[C@H](O)[C@@H](O)[C@@H](O[C@H]4[C@H](O)[C@@H](O)[C@@H](O[C@H]5[C@H](O)[C@@H](O)[C@@H](O[C@H]6[C@H](O)[C@@H](O)[C@@H](O[C@H]7[C@H](O)[C@@H](O)[C@@H](O[C@H]8[C@H](O)[C@@H](O)[C@@H](O[C@H]9[C@H](O)[C@@H](O)[C@@H](O[C@H]1[C@H](O)[C@H]2O)O[C@@H]9CO)O[C@@H]8CO)O[C@@H]7CO)O[C@@H]6CO)O[C@@H]5CO)O[C@@H]4CO)O[C@@H]3CO [γCD, γ-cyclodextrin] | 256 | 47 | – | –
3 | O=C(CCCC(F)(F)F)N1CCC(c2nc(-c3nccs3)no2)CC1 [BDM41906] | – | – | No difference was observed concerning the boosting efficacy between BDM41906 and BDM43266 | –
4 | OC[C@H]1O[C@@H]2O[C@H]3[C@H](O)[C@@H](O)[C@@H](O[C@H]4[C@H](O)[C@@H](O)[C@@H](O[C@H]5[C@H](O)[C@@H](O)[C@@H](O[C@H]6[C@H](O)[C@@H](O)[C@@H](O[C@H]7[C@H](O)[C@@H](O)[C@@H](O[C@H]1[C@H](O)[C@H]2O)O[C@@H]7CO)O[C@@H]6CO)O[C@@H]5CO)O[C@@H]4CO)O[C@@H]3CO [αCD, α-cyclodextrin] | 100 | 24 | – | –
5 | CN[C@@H]1C[C@H]2O[C@@](C)([C@@H]1OC)n1c3ccccc3c3c4c(c5c6ccccc6n2c5c31)C(=O)NC4 [staurosporine] | – | – | – | late apoptotic, double positive cells
